Key:
cAMP = cAMP accumulation in HeLa cells; format: cell-based, human; settings: 0.5 μM S1P
Method: Panel A: cAMP accumulation in HeLa cells was measured in the absence and presence of serum as described above. The mean ±SEM (Standard error of the mean) of three determinations is shown. Panel A: cAMP accumulation in HeLa cells was measured in the absence (black bars) and presence (grey bars) of 0.5 μM S1P at varying times as described in Materials and Methods section. The mean ±SEM of three determinations is shown. Spinal cord samples were sonicated and centrifugeged at 4° C. for 20 minutes with 18.000×g. The supernatent was used for cAMP measurements. The cAMP accumulation in the cells was determined by the cAMP Detection Kit (Assay Design Inc, Ann Arbor, Mich.) according to the manufacturers instructions.

adenylyl cyclase (AC) = assay: AC activity of HeLa cell lysates after treatment of cells; format: cell-based, human; settings: HeLa cells
Method: Panel B: Adenylyl cyclase activity of HeLa cell lysates was measured in the absence and presence of serum as described in Materials and Methods section. The Gsα* (80 nM; grey bars)- and forskolin (100 μM; black bars)-stimulated specific activities of ACV were 124±10 pmol/mg/min and 464±89 pmol/min/mg, respectively. The basal activity was 11.75±2 pmol/mg/min. The mean ±SE of at least 2 experiments each done in triplicates is shown. Student T test: *p<0.001.
Panel E: Serum-starved HeLa cells were treated with sense, antisense, and 3M-as ODNs as described above. After 24 hours the cells were incubated for 30 minutes with 10% FBS. Cells were harvested and AC activity in presence of Gαs* (80 nM; grey bars) and forskolin (100 μM; black bars) was determined as described above. Data from at least 3 experiments measured in triplicates are presented as the mean±SEM. Student T test: *p<0.01, **p<0.05.
Panel B: Serum-starved HeLa cells were treated for varying times with 0.5 μM S1P. Cells were harvested and AC activity in presence of 80 nM Gαs* was determined as described in Material and Methods. Data from at least 4 experiments measured in triplicates are presented as the mean ±SE.
Panel C: Serum-starved HeLa cells were treated with sense, antisense, and 3M-as ODNs as described in the Materials and Methods section. After 24 hours the cells were incubated for the indicated times with 0.5 μM S1P. Cells were harvested and AC activity in presence of Gαs* (80 nM) was determined as described above. Data are presented as the mean ±SEM of three determinations.
Panel A: Serum-starved HeLa cells were treated with 0.5 μM S1P for 3 (grey bars) or 60 (black bars) minutes. Prior incubation with S1P the cells were incubated for 24 hours with […] pertussis toxin (PTX). AC activity in was determined presence of 80 nM Gαs*. Data from at least 2 experiments measured in triplicates are presented as the mean ±SE.
Panel B: Serum-starved HeLa cells were treated with 0.5 μM S1P. Prior incubation with S1P the cells were incubated for 20 minutes with 10 μM U73122, R031-8220, BAPTA-AM or U0126. AC activity in was determined presence of 80 nM Gαs*. Data from at least 2 experiments measured in triplicates are presented as the mean ±SE.
Spinal cords were lysed in 25 mM Hepes, pH 7.4, 1 mM EGTA and cell membranes were prepared as described by Kassis and Fishman. Aliquots were stored at −80° C. until use. AC activity assays were performed in a volume of 100 μl for 15 min at room temperature in the presence of 100 μM MgCl2 as previously described (Patel et al., 2002). Gsα* (80 nM) or forskolin (100 μM) were used to stimulate AC enzyme activity in membranes (10 μg protein).
The sequences of the oligodeoxynucleotides (ODNs) were chosen as published previously (Scholich et al., 2001). Sense: 5′-CTGTTCATGCCGGTT-3′, antisense: 5′-AACCGGCATGAACAG-3′, and antisense ODN harboring three mutations (3M-as; mutations are underlined): 5′-AATCCGTATGAACAC-3′. HeLa-cells were plated on 35 mm dishes (300,000 cells) and grown in DMEM medium (Gibco, Karlsruhe, Germany) containing 10% FBS and 1% penicillin/streptoMycin for 24 hours. The ODNs (3 μM each) were introduced into the cells by transfections using Tfx20 (Promega, Madison, Wis.) in 1 ml serum-free medium according to the instructions of the manufacturer. Two hours later, 1 ml DMEM (Gibco, Karlsruhe, Germany) containing 10% FBS was added. The cells were then incubated for 6 hours. Then the medium was exchanged against serum-free DMEM (Gibco, Karlsruhe, Germany), followed by an incubation for 16 hours in serum-free DMEM (Gibco, Karlsruhe, Germany) before being treated with 10% serum or […] S1P. The cells were then used for Western blots by adding boiling 1× Laemmli buffer or they were havested for AC activity assays as described above.

`CCCCCCCCCCCCC/C=C/[C@@H](O)[C@@H](N)COP(=O)(O)O` [S1P, Sphingosine-1-Phosphate] was tested, and the “intracellular cAMP content” value (cAMP) was “reduced”, the “Gαs-stimulated AC activity” value (adenylyl cyclase (AC); 0.5 μM S1P) was “reduced” and the “time to first decrease of Gαs-stimulated AC activity” value (adenylyl cyclase (AC); after incubation with S1P) was ≤ 3 min.
